What was measured:
[1] = system: yeast strains expressing the human α-synuclein; assay: Yeast α-synuclein toxicity rescue assay (OD600 growth); details: 40 h; for EC50: read-out: α-Syn EC50; for Emax: read-out: α-Syn Emax
SCD5 = biological target: T1, SCD5 (Homo sapiens, UniProt Q86SK9); assay: Growth inhibition of humanized yeast strain expressing SCD5 as sole desaturase; assay type: cell-based; details: humanized yeast strain expressing SCD5
T1 construct: host or cells: S. cerevisiae ole1Δ strain (W303 pdr1Δ pdr3Δ background), plasmid pRS316 with TDH3 promoter and CYC1 terminator
T1 sequence (Q86SK9 1-330): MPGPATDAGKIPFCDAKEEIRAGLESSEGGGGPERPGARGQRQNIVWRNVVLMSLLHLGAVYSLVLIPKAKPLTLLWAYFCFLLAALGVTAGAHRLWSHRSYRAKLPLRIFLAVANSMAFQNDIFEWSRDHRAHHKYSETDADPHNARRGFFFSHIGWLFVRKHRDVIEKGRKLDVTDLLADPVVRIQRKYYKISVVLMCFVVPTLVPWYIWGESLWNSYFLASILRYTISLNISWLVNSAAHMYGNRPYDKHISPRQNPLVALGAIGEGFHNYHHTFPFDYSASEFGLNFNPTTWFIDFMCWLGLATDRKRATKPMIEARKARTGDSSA
Method in brief: (§1)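 Measured by optical density at 600 nm, growth of desaturase-dependent yeast (OLE1 deleted; human SCD1, human SCD5 or yeast Ole1 supplied from plasmid) was scored after 24 h (Ole1) or 40 h (SCD1, SCD5) at 30° C. in galactose media lacking uracil with DMSO-delivered compound.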

[2] = system: yeast strains expressing the human ApoE4; assay: Yeast ApoE4 toxicity rescue assay (OD600 growth); details: 24 h; for EC50: read-out: ApoE4 EC50; for Emax: read-out: ApoE4 Emax
Ole1 = biological target: T2, Ole1 (Saccharomyces cerevisiae, UniProt P21147); assay: Growth inhibition of yeast strain expressing Ole1 as sole desaturase; assay type: cell-based; details: yeast strain expressing Ole1 as sole desaturase
T2 construct: expressed in transfected cells; host or cells: S. cerevisiae ole1Δ strain (W303 pdr1Δ pdr3Δ background), plasmid pRS316 with TDH3 promoter and CYC1 terminator
T2 sequence (P21147 1-510): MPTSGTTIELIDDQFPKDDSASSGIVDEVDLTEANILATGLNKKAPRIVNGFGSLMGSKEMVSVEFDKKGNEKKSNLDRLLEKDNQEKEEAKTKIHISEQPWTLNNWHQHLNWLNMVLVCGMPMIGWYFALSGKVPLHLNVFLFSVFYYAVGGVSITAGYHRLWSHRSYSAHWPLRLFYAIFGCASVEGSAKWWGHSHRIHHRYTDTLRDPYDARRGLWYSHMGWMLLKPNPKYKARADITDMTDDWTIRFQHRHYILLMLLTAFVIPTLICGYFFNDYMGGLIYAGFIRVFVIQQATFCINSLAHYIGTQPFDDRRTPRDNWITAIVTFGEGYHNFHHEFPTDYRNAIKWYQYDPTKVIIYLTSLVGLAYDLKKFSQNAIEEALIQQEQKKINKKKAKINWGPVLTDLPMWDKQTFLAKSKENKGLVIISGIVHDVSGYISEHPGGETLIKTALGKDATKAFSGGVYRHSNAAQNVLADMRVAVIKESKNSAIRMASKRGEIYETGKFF
Method in brief: as §1

SCD1 = biological target: T3, SCD1 (Homo sapiens, UniProt O00767); assay: Growth inhibition of humanized yeast strain expressing SCD1 as sole desaturase; assay type: cell-based; details: humanized yeast strain expressing SCD1
T3 construct: host or cells: S. cerevisiae ole1Δ strain (W303 pdr1Δ pdr3Δ background), plasmid pRS316 with TDH3 promoter and CYC1 terminator
T3 sequence (O00767 1-359): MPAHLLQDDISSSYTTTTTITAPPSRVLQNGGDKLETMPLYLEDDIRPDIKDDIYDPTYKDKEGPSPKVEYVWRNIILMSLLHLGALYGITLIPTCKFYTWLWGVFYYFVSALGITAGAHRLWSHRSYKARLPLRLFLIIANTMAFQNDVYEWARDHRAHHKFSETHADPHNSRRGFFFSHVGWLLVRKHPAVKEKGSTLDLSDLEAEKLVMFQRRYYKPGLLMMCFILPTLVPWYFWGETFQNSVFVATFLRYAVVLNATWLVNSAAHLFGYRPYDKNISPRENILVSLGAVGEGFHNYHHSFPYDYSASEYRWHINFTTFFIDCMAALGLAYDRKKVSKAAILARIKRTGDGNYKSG
Method in brief: as §1

| SMILES | EC50 [1] [µM] | Emax [1] [%] | IC50 (SCD5) [µM] | SCD5 % Max Inhibition (SCD5) [%] | EC50 [2] [µM] | Emax [2] [%] | IC50 (Ole1) [µM] | OLE1 % Max Inhibition (Ole1) [%] | IC50 (SCD1) [µM] | SCD1 % Max Inhibition (SCD1) [%] |
| --- | --- | --- | --- | --- | --- | --- | --- | --- | --- | --- |
| COc1ccc(-c2noc(C3CCN(C(=O)C(C)NC(=O)c4ccccc4)CC3)n2)cc1OC (centres unmarked) [Compound 28] | 0.066 | 576 | > 45 | 79.98 | 1.59 | 836 | > 45 | 4.80 | > 45 | 98.15 |
| O=C(NCC(=O)N1CCC(c2nc(-c3ccccc3F)no2)CC1)c1ccccc1 [Compound 43] | 14.6 | 222 | > 45 | 65.66 | 17.7 | 517 | > 45 | 107.35 | > 45 | 76.52 |
| Cc1ccc(-c2nc(C3CCN(C(=O)[C@H]4CC(=O)N(c5ccc(C)c(C)c5)C4)CC3)no2)cc1 (single isomer, unassigned) [compound 71] | 8.09 | 151 | > 45 |  | 8.97 | 235 | > 45 |  | > 45 |  |
| COc1ccc(-c2noc(C3CCN(C(=O)CNC(=O)c4ccccc4)CC3)n2)cc1OC [Compound 7] | 0.04 | 594 | > 45 |  | 0.176 | 782 | > 45 |  | 39.2 |  |
| CC(C)c1ccc(C(=O)N2CCC(c3nc(-c4cccc(F)c4)no3)CC2)cc1 [compound 8] | 13.8 | 188 | > 45 |  |  | 111 | > 45 |  | > 45 |  |
| O=C(NCC(=O)N1CCC(c2nc(-c3cccc(F)c3)no2)CC1)c1ccccc1 [Compound 42] | 12.5 | 255 | > 45 | 47.40 |  | 399 | > 45 | 95.43 | > 45 | 90.77 |
| COc1ccc(-c2nsc(C3CCN(C(=O)CNC(=O)c4ccccc4)CC3)n2)cc1OC [Compound 35] | 0.052 | 626 | > 45 | 68.57 | 1.12 | 911 | > 45 | 3.66 | > 45 | 79.23 |
| Cc1cccc(-c2nc(C3CCN(C(=O)[C@@H]4CC(=O)N(c5ccc(C)c(C)c5)C4)CC3)no2)c1 (single isomer, unassigned) [compound 74] | 17.9 | 155 | > 45 |  |  | 411 | > 45 |  | 31.3 |  |
| Cc1ccc(-c2nc(C3CCN(C(=O)C4CC(=O)N(c5ccc(C)c(C)c5)C4)CC3)no2)cc1 (centres unmarked) [Compound 50] | 7.86 | 85 | > 45 | 46.80 |  | 133 | > 45 | 98.10 |  | 67.05 |
| COc1cccc(-c2noc(C3CCN(C(=O)[C@@H]4CC(=O)N(c5ccc(C)c(C)c5)C4)CC3)n2)c1 (single isomer, unassigned) [compound 69] |  | 294 | > 45 |  |  | 387 | > 45 |  | > 45 |  |
| COc1cccc(-c2noc(C3CCN(C(=O)CNC(=O)c4ccc(C)c(C)c4)CC3)n2)c1 [compound 17] | 17.4 | 330 | > 45 |  |  | 246 | > 45 |  | > 45 |  |
| COc1ccc(-c2noc(C3CCN(C(=O)[C@H]4CC(=O)N(c5ccc(C)c(C)c5)C4)CC3)n2)cc1OC (single isomer, unassigned) [compound 67] | 7.38 | 255 | > 45 |  | 17.4 | 420 | > 45 |  | 40.7 |  |
| COc1ccc(-c2noc(C3CCN(C(=O)CNC(=O)c4ccc(C)c(C)c4)CC3)n2)cc1 [compound 16] | 17.8 | 249 | > 45 |  | 21.2 | 418 | > 45 |  | 37.1 |  |
| COc1ccc(-c2coc(C3CCN(C(=O)CNC(=O)c4ccccc4)CC3)n2)cc1OC [Compound 37] | 2.21 | 608 | > 45 | 74.18 | 6.53 | 849 | > 45 | 9.99 | > 45 | 81.44 |
| CCOc1ccc(-c2noc(C3CCN(C(=O)CNC(=O)c4ccccc4)CC3)n2)cc1F [compound 97] | 0.707 | 132 | 30 |  | 3.88 | 704 | > 45 |  | > 45 |  |
| Cc1nn(C)c2cc(-c3noc(N4CCN(C(=O)C5CC(=O)N(c6ccccc6)C5)CC4)n3)ccc12 (centres unmarked) [compound 96] | 0.026 | 343 | > 45 |  | 0.228 | 840 | > 45 |  | > 45 |  |
| O=C(NCC(=O)N1CCC(c2nc(-c3ccccc3)no2)CC1)c1ccccc1 [compound 9] | 12.1 | 167 | > 45 |  |  | 301 | > 45 |  | > 45 |  |
| COc1ccc(-c2noc(C3CCN(C(=O)/C=C/C(=O)c4ccccc4)CC3)n2)cc1OC [Compound 33] | 0.111 | 260 | > 45 | 24.10 | 0.717 | 281 | > 45 | 1.55 | > 45 | 8.14 |
| Cc1ccc(N2CC(C(=O)N3CCC(c4nc(-c5ccccc5)no4)CC3)CC2=O)cc1C (centres unmarked) [compound 1] |  | 155 | > 45 |  |  | 320 | 40.3 |  | > 45 |  |
| COc1ccc(-c2noc(C3CCN(C(=O)[C@H](C)NC(=O)c4ccccc4)CC3)n2)cc1OC (single isomer, unassigned) [Compound 59] | 15.7 | 82 | > 45 | 59.32 |  | 47 | > 45 | 105.25 | > 45 | 79.13 |
| COc1ccc(-c2nc(C3CCN(C(=O)CNC(=O)c4ccccc4)CC3)no2)cc1OC [Compound 36] | 1.76 | 629 | > 45 | 63.86 | 2.15 | 908 | > 45 | 17.70 | 30 | 64.67 |
| O=C(NCC(=O)N1CCC(c2nc(-c3ccc4ccccc4n3)no2)CC1)c1ccccc1 [compound 79] | 9.91 | 627 | > 45 |  | 18.8 | 631 | > 45 |  | > 45 |  |
| COc1ccc(-c2noc(C3CCN(C(=O)CNc4nccc5ccccc45)CC3)n2)cc1OC [Compound 55] | 23.8 | 47 | > 45 | 74.78 | 7.9 | 29 | > 45 | 114.12 | 33.7 | 74.99 |
